Measurements: patent US9999624B2, “Combination Alzheimer therapy using anti-N3pGlu Abeta antibodies + a BACE inhibitor” (Eli Lilly and Company, priority 2014, dated 2018)
Counter-ions that a name gives are not always drawn. Like-named read-outs stand apart in the source and are kept apart here.

How the values were obtained:
human BACE1(1-460):Fc = human BACE1(1-460):Fc (Homo sapiens (Human), UniProt P56817); experiment: BACE1 FRET Assay; assay type: biochemical; settings: purified recombinant huBACE1:Fc, FRET substrate, pH 4.6; Mean ± SEM
young female PDAPP mice = experiment: In Vivo Inhibition of Beta-Secretase (brain Abeta 1-x reduction); parameters: species or system mouse; settings: for CNS penetration: inferred from brain Abeta lowering after oral dose; for Abeta 1-x peptide levels reduced in brain cortex / Abeta 1-x peptide levels reduced in brain hippocampus: 3 hours after administration, compared to vehicle-treated mice
Source text: Several animal models, including mouse, guinea pig, dog, and monkey, may be used to screen for inhibition of beta-secretase activity in vivo following compound treatment Animals used in this invention can be wild type, transgenic, or gene knockout animals. For example, the PDAPP mouse model, prepared as described in Games et al., Nature 373, 523-527 (1995), and other non-transgenic or gene knockout animals are useful to analyze in vivo inhibition of Abeta and sAPPbeta production in the presence of inhibitory compounds. Generally, 2 to 12 month old PDAPP mice, gene knockout mice or non-transgenic animals are administered compound formulated in vehicles, such as corn oil, cyclodextran, phosphate buffers, […]®, or other suitable vehicles. One to twenty-four hours following the administration of compound, animals are sacrificed, and brains as well as cerebrospinal fluid and plasma are removed for analysis of Abetas, C99, and sAPP fragments. (See May, et al., Journal of Neuroscience, 31, 16507-16516 (2011)). For standard in vivo pharmacology studies, animals are dosed with various concentrations of compound and compared to a vehicle-treated control group dosed at the same time. For some time course studies, brain tissue, plasma, or cerebrospinal fluid is obtained from selected animals, beginning at time 0 to establish a baseline. Compound or appropriate vehicle is administered to other groups and sacrificed at various times after dosing. Brain tissue, plasma, or cerebrospinal fluid is obtained from selected animals and analyzed for the presence of APP cleavage products, including Abeta peptides, sAPPbeta, and other APP fragments, for example, by specific sandwich ELISA assays. At the end of the test period, animals are sacrificed and brain tissues, plasma, or cerebrospinal fluid are analyzed for the presence of Abeta peptides, C99, and sAPPbeta, as appropriate. Brain tissues of APP transgenic animals may also be analyzed for the amount of beta-amyloid plaques following compound treatment. “Abeta 1-x peptide” as used herein refers to the sum of Abeta species that begin with […]-terminus greater than residue 28. This detects the majority of Abeta species and is often called “total Abeta”.

[1] = tested on: primary cortical neurons from PDAPP transgenic embryonic mice; experiment: PDAPP Primary Neuronal Assay (Abeta ELISA); assay type: cell-based; settings: Mus musculus, Primary cortical neuron, 24 h, Mean ± SEM

human BACE1(1-460):Fc, sequence (P56817 22-460): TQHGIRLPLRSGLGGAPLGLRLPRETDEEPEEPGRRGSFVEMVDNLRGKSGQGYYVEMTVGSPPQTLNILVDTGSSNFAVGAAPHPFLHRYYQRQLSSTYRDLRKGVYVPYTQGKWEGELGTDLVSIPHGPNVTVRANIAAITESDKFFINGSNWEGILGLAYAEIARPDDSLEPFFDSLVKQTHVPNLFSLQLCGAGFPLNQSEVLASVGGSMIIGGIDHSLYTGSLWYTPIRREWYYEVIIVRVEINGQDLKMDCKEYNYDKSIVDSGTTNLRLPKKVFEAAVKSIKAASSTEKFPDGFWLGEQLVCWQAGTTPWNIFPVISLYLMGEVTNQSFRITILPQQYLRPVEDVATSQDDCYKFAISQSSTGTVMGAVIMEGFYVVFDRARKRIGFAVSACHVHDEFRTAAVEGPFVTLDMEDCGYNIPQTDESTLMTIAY

SMILES: Cl.NC1=N[C@@]2(c3cccc(NC(=O)c4ccc(F)cn4)c3)CN(c3ncc(F)cn3)C[C@H]2CS1 [Example 1, N-{3-[(4aR,7aS)-2-Amino-6-(5-fluoropyrimidin-2-yl)-4a,5,6,7-tetrahydropyrrolo[3,4-d][1,3]thiazin-7a(4H)-yl]phenyl}-5-fluoropyridine-2-carboxamide hydrochloride]
- IC50 (human BACE1(1-460):Fc): 610 pM
- CNS penetration (young female PDAPP mice): demonstrate CNS penetration

SMILES: COc1cnc(C(=O)Nc2ccc(F)c([C@]34CN(c5ncc(F)cn5)C[C@H]3CSC(N)=N4)c2)cn1.Cl [Example 4, N-[3-[(4aR,7aS)-2-Amino-6-(5-fluoropyrimidin-2-yl)-4,4a,5,7-tetrahydropyrrolo[3,4-d][1,3]thiazin-7a-yl]-4-fluoro-phenyl]-5-methoxy-pyrazine-2-carboxamide hydrochloride]
- Abeta 1-x peptide levels reduced in brain cortex (young female PDAPP mice; 0.3 mg/kg oral dose): approximately 28%
- Abeta 1-x peptide levels reduced in brain hippocampus (young female PDAPP mice; 0.3 mg/kg oral dose): approximately 31%
- Abeta 1-x peptide levels reduced in brain cortex (young female PDAPP mice; 1 mg/kg oral dose): ~42%
- Abeta 1-x peptide levels reduced in brain hippocampus (young female PDAPP mice; 1 mg/kg oral dose): ~39%
- Abeta 1-x peptide levels reduced in brain cortex (young female PDAPP mice; 3 mg/kg oral dose): ~64%
- Abeta 1-x peptide levels reduced in brain hippocampus (young female PDAPP mice; 3 mg/kg oral dose): ~61%
- CNS penetration (young female PDAPP mice): demonstrate CNS penetration

SMILES: NC1=N[C@@]2(c3cccc(NC(=O)c4ncc(F)cc4F)c3)CN(c3ncc(F)cn3)C[C@H]2CS1 [Example 7, N-[3-[(4aR,7aS)-2-Amino-6-(5-fluoropyrimidin-2-yl)-4,4a,5,7-tetrahydropyrrolo[3,4-d][1,3]thiazin-7a-yl]phenyl]-3,5-difluoro-pyridine-2-carboxamide hydrochloride]
- IC50 (human BACE1(1-460):Fc): 739 pM

SMILES: N#Cc1ccc(C(=O)Nc2ccc(F)c([C@]34CN(c5ncc(F)cn5)C[C@H]3CSC(N)=N4)c2)nc1 [Example 8, N-[3-[(4aR,7aS)-2-Amino-6-(5-fluoropyrimidin-2-yl)-4,4a,5,7-tetrahydropyrrolo[3,4-d][1,3]thiazin-7a-yl]-4-fluoro-phenyl]-5-cyano-pyridine-2-carboxamide hydrochloride]
- IC50 ([1]; Abeta 1-40 in conditioned media, read-out: PDAPP Neuron A-beta (1-40) ELISA IC50): 137 pM
- IC50 ([1]; Abeta 1-42 in conditioned media, read-out: PDAPP Neuron A-beta (1-42) ELISA IC50): 72.5 pM
